Data as given in patent publication US9040534B2, “[1,2,4]triazolo[4,3-a]pyrazines as P2X7 modulators” (Janssen Pharmaceutica NV, priority 2013, dated 2015).

Legend:
rat P2X7 = rat P2X7 (Rattus norvegicus (Rat), UniProt Q64663); experiment: Ca2+ flux (FLIPR) in 1321N1 cells expressing recombinant rat P2X7 channel; assay type: cell-based; conditions: 250 μM BzATP
Protocol: (§1) (A) Ca^2+ Flux: 1321N1 cells expressing the recombinant human, rat or mouse P2X7 channel was cultured in HyQ DME/(HyClone/Dulbecco's Modified Eagle Medium) high glucose supplemented with 10% Fetal Bovine Serum (FBS) and appropriate selection marker. Cells were seeded at a density of 25000 cells/well (96-well clear bottom black walled plates) in 100 μl volume/well. On the day of the experiment, cell plates were washed with assay buffer, containing (in mM): 130 NaCl, 2 KCl, 1 CaCl2, 1 MgCl2, 10 HEPES, 5 glucose; pH 7.40 and 300 mOs. After the wash, cells were loaded with the Calcium-4 dye (Molecular Device) and incubated in the dark for 60 minutes. Test compounds were prepared at 250× the test concentration in neat DMSO. Intermediate 96-well compound plates were prepared by transferring 1.2 μL of the compound into 300 μL of assay buffer. A further 3× dilution occurred when transferring 50 μL/well of the compound plate to 100 μL/well in the cell plate. Cells were incubated with test compounds and dye for 30 minutes. […] The fluorescence change was measured 180 seconds after adding the agonist.

P2X7 [1] = target: T1, P2X7 (Homo sapiens (Human), UniProt Q99572); experiment: Radioligand binding, human P2X7-1321N1 cell membranes, tritiated A-804598 tracer; conditions: 1 hour at 4° C.
Protocol: (B) Radioligand binding: human or rat P2X7-1321N1 cells were collected and frozen @ −80° C. On the day of the experiment, cell membrane preparations were made according to standard published methods. […] The compound can be prepared as described in the literature. […] The assay was terminated by filtration (GF/B filters pre-soaked with 0.3% PEI) and washed with washing buffer (Tris-HCl 50 mM). The IC50 generated in the binding assay was corrected for tracer concentration and affinity of the tracer to derive at the affinity (Ki) of the test compounds.

P2X7 [2] = target: T1, P2X7; experiment: P2X7 antagonism in human whole blood (LPS + Bz-ATP induced IL-1β release, ELISA); assay type: cell-based; conditions: 1 mM Bz-ATP
Protocol: Human blood was collected using a blood donor program. PBMCs were isolated from blood using a Ficoll density gradient technique. Briefly, blood was laid on Ficoll solution and centrifuged at RT for 20 minutes at 2000 rpm. The buffy layer (between red blood cells and plasma) was carefully collected by aspiration, washed with PBS and centrifuged again at 1500 rpm for 15 minutes. The resulting cell pellet was washed and plated on 96 well-plates for experiments. […] Lipopolysaccharide (LPS) (30 ng/ml) was added to each well and incubated for 1 hour. Test compounds were then added and incubated for 30 minutes. The P2X7 agonist, 2′(3′)-O-(4-benzoylbenzoyl) adenosine 5′-triphosphate (Bz-ATP) was then added at a final concentration of 0.5 mM (PBMC) or 1 mM (blood). Cells were incubated for an additional 1.5 hours. At that point, supernatant was collected and stored for IL-1β assay using manufacturer's protocol for enzyme-linked immunosorbent assay (ELISA). Data was expressed as percent control, where control is defined as the difference in IL-1β release in LPS+Bz-ATP samples and LPS only samples. Data was plotted as response (% control) versus concentration to generate IC50 values.

P2X7 [3] = target: T1, P2X7; experiment: Ca2+ flux (FLIPR) in 1321N1 cells expressing recombinant human P2X7 channel; assay type: cell-based; conditions: 250 μM BzATP
Protocol: as §1

T1 sequence (Q99572 whole entry): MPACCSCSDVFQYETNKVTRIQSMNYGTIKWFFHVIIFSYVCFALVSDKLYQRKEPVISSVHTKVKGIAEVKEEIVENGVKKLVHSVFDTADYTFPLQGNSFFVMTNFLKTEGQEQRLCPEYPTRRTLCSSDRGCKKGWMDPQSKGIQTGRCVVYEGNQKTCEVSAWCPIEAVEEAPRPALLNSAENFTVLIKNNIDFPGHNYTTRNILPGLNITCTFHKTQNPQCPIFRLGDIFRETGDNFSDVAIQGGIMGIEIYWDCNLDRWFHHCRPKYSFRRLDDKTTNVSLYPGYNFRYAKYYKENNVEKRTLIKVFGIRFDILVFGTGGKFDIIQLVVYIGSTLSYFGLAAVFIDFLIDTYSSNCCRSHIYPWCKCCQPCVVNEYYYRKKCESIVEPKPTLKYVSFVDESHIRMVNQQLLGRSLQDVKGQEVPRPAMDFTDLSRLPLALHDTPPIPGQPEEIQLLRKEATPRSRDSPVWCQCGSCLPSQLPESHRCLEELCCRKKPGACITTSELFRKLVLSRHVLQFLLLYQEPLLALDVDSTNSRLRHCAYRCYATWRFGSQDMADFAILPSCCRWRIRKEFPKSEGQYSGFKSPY
Sequence of rat P2X7 (Q64663 whole entry): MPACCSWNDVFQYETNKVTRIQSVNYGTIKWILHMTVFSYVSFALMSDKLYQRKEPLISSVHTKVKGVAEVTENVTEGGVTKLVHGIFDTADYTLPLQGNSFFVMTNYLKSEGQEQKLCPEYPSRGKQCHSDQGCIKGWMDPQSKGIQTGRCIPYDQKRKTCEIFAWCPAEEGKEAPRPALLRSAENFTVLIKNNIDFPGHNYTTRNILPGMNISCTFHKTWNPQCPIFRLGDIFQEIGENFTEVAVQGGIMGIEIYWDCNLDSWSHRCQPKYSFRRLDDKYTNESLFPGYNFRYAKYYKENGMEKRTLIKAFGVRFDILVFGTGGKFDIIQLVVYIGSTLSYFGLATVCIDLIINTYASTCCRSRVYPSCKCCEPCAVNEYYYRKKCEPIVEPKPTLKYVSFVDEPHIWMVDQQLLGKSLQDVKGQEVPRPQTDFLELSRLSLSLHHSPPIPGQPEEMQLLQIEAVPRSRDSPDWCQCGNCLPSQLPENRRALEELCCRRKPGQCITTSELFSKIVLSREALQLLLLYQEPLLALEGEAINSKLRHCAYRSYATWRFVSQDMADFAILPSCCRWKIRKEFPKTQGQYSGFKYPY

IC50 (rat P2X7)	Ki (P2X7 [1])	IC50 (P2X7 [2])	IC50 (P2X7 [3])	SMILES
> 10000 nM	20 nM	10000 nM	147 nM	O=C1c2nnc(-c3ccccn3)n2CCN1Cc1cccc(Cl)c1Cl [Example 8, 7-(2,3-Dichlorobenzyl)-3-pyridin-2-yl-6,7-dihydro[1,2,4]triazolo[4,3-a]pyrazin-8(5H)-one]
> 10000 nM	10 nM	> 10000 nM	50.2 nM	O=C1c2nnc(-c3ccccn3)n2CCN1Cc1cccc(C(F)(F)F)c1Cl [Example 9, 7-[2-Chloro-3-(trifluoromethyl)benzyl]-3-pyridin-2-yl-6,7-dihydro[1,2,4]triazolo[4,3-a]pyrazin-8(5H)-one]
